Experimental data: ChEMBL document CHEMBL1141417, “2,6,8-trisubstituted 1-deazapurines as adenosine receptor antagonists” (J Med Chem, 2007)

Columns and labels:
[1] = biological target: T1, Adenosine receptor A1 (Homo sapiens) (UniProt P30542); assay: Activity at human adenosine A1 receptor expressed in CHO cells assessed as effect on forskolin-stimulated cAMP production at 100 uM; type: functional, cell-based; settings: filed as inverse agonist
T1 sequence (whole entry): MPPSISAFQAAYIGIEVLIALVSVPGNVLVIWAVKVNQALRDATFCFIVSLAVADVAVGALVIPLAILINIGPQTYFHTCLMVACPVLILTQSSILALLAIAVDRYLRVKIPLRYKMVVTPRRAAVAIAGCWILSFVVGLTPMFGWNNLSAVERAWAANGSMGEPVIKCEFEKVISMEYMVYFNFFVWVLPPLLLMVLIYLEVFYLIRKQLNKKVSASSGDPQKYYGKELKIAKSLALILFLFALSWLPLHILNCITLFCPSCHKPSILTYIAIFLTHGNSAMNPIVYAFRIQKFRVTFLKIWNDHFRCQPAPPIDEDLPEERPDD

[2] = biological target: T2, Adenosine receptor A2a (Homo sapiens, UniProt P29274); assay: Displacement of [3H]ZM-241385 from human adenosine A2A receptor expressed in CHO cells; type: cell-based
T2 sequence (P29274 whole entry): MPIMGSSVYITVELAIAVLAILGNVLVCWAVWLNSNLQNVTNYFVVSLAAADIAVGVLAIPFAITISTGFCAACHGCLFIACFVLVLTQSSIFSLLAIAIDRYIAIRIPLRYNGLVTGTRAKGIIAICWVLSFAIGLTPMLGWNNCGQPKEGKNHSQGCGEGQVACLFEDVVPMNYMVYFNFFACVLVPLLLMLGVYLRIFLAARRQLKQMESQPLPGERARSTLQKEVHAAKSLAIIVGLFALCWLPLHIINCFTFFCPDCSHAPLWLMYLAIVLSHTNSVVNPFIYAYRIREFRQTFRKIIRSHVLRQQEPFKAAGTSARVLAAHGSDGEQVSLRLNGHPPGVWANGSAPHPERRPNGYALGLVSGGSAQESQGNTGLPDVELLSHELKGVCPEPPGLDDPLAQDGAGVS

[3] = biological target: T1, Adenosine receptor A1 (Homo sapiens); assay: Activity at human adenosine A1 receptor expressed in CHO cells assessed as effect on forskolin-stimulated cAMP production at 100 nM; type: functional, cell-based
[4] = biological target: T3, Adenosine receptor A3 (Homo sapiens, UniProt P0DMS8); assay: Displacement of [125I]AB-MECA from human adenosine A3 receptor expressed in CHO cells; type: cell-based
T3 sequence (P0DMS8 whole entry): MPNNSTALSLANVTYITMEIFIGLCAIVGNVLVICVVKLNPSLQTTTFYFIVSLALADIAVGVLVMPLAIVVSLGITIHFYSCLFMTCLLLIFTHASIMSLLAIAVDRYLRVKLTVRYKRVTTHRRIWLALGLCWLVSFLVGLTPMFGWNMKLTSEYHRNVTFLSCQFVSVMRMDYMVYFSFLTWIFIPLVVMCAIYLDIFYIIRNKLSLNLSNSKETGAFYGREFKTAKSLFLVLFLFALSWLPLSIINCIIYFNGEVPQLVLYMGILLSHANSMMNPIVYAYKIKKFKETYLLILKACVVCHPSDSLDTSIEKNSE

[5] = biological target: T1, Adenosine receptor A1 (Homo sapiens); assay: Activity at human adenosine A1 receptor in CHO cells assessed as effect on CPA induced inhibition of forskolin-stimulated cAMP production at 1 uM; type: functional, cell-based; settings: filed as antagonist
[6] = biological target: Adenosine receptors; A1 & A2a (Homo sapiens) (UniProt P30542+P29274); assay: Selectivity for human adenosine A1 receptor over human adenosine A2A receptor; type: protein assay
Adenosine receptors; A1 & A2a (Homo sapiens), sequence (P29274 whole entry, looked up, one chain of several): as the sequence (P29274 whole entry) above

[7] = biological target: T1, Adenosine receptor A1 (Homo sapiens); assay: Displacement of [3H]DPCPX from human adenosine A1 receptor expressed in CHO cells at 1 uM; type: cell-based
[8] = biological target: T4, Adenosine receptor A3 (Homo sapiens) (UniProt P0DMS8); assay: Displacement of [125I]AB-MECA from human adenosine A3 receptor expressed in CHO cells at 1 uM; type: cell-based
T4 sequence (whole entry): T3 sequence (P0DMS8 whole entry)

[9] = biological target: T2, Adenosine receptor A2a; assay: Displacement of [3H]ZM241385 from human adenosine A2A receptor expressed in CHO cells at 1 uM; type: cell-based
[10] = biological target: T5, Adenosine receptor A1 (Homo sapiens, UniProt P30542); assay: Displacement of [3H]DPCPX from human adenosine A1 receptor expressed in CHO cells; type: cell-based
T5 sequence (P30542 whole entry): T1 sequence (whole entry)

[11] = biological target: Adenosine receptors; A1 & A3 (Homo sapiens) (UniProt P30542+P0DMS8); assay: Selectivity for human adenosine A1 receptor over human adenosine A3 receptor; type: protein assay
[12] = biological target: T5, Adenosine receptor A1; assay: Activity at human adenosine A1 receptor in CHO cells assessed as effect on CPA induced inhibition of forskolin-stimulated cAMP production; type: functional, cell-based

| Ki [2] | Activity ([3]; filed as inverse agonist) | Ki [4] | Activity [5] | Ratio Ki [6] | Ki [10] | Compound | further results |
| --- | --- | --- | --- | --- | --- | --- | --- |
| – | Inverse agonist | 6.9 nM (antagonist) | Antagonist | > 1600 | – | c1ccc(-c2cc(-c3ccccc3)c3nc(C4CCCC4)[nH]c3n2)cc1 | inhibition [9]: 49% |
| 114 nM (antagonist) | – | 69 nM (antagonist) | – | – | 2.5 nM (antagonist) | CCCc1nc2c(-c3ccccc3)cc(-c3ccccc3)nc2[nH]1 | – |
| 177 nM (antagonist) | – | 8.5 nM (antagonist) | – | – | 2.4 nM (antagonist) | CCc1nc2c(-c3ccccc3)cc(-c3ccccc3)nc2[nH]1 | – |
| 375 nM (antagonist) | – | 61 nM (antagonist) | – | – | – | Cc1nc2c(-c3ccccc3)cc(-c3ccccc3)nc2[nH]1 | – |

The remaining lines, values behind:

| Compound | Ki [2] | Activity ([3]; filed as inverse agonist) | Ki [4] | Activity [5] | Ratio Ki [6] | Ki [10] | further results |
| --- | --- | --- | --- | --- | --- | --- | --- |
| Cn1cnc2c(NC3CCCC3)ncnc21 | – | – | – | – | – | – | Activity [1]: Inverse agonist |
| CC(C)c1nc2c(-c3ccccc3)cc(-c3ccccc3)nc2[nH]1 | 230 nM (antagonist) | Inverse agonist | 7.3 nM (antagonist) | Antagonist | 377 | – | – |
| c1ccc(Cn2cnc3c(-c4ccccc4)cc(-c4ccccc4)nc32)cc1 | – | – | – | – | – | – | inhibition [7]: 38%; inhibition [8]: 15%; inhibition [9]: 2% |
| CC(C)Cc1nc2c(-c3ccccc3)cc(-c3ccccc3)nc2[nH]1 | 189 nM (antagonist) | Inverse agonist | 25 nM (antagonist) | Antagonist | > 300 | 0.55 nM (antagonist) | Ratio Ki [11]: 45 |
| OC[C@H]1O[C@@H](n2cnc3c(NC4CCCC4)ncnc32)[C@H](O)[C@@H]1O | – | – | – | – | – | – | Activity ([3]; filed as agonist): Agonist |
| CC(C)(C)c1nc2c(-c3ccccc3)cc(-c3ccccc3)nc2[nH]1 | 1050 nM | – | 115 nM (antagonist) | – | – | 5.5 nM (antagonist) | – |
| c1ccc(-c2cc(-c3ccccc3)c3nc(C4CCCCC4)[nH]c3n2)cc1 | 194 nM (antagonist) | Inverse agonist | 637 nM (antagonist) | Antagonist | 215 | – | Ratio Ki [11]: 718; IC50 [12]: 1700 nM (antagonist) |
| c1ccc(-c2cc(-c3ccccc3)c3nc[nH]c3n2)cc1 | 39 nM (antagonist) | – | 180 nM (antagonist) | – | 33 | 1.2 nM (antagonist) | – |
| CCC(CC)c1nc2c(-c3ccccc3)cc(-c3ccccc3)nc2[nH]1 | 247 nM (antagonist) | Inverse agonist | 171 nM (antagonist) | Antagonist | – | 0.87 nM (antagonist) | Ratio Ki [11]: 199 |
| c1cnc2[nH]c(C3CCCC3)nc2c1 | – | – | – | – | – | – | inhibition [7]: 6%; inhibition [8]: 0%; inhibition [9]: 3% |
| CCc1nc2c(C)cc(C)nc2[nH]1 | – | – | – | – | – | 101 nM (antagonist) | inhibition [8]: 49%; inhibition [9]: 8% |
| O=c1[nH]c2nc(-c3ccccc3)cc(-c3ccccc3)c2[nH]1 | 192 nM (antagonist) | – | 262 nM (antagonist) | – | – | 8.6 nM (antagonist) | – |
